Literature values in US6720307B2, “Glycosylated analogs of fusidic acid” (The University of Michigan, priority 1996, dated 2004).

Experiments:
enterobacteria = conditions: all enterobacteria
[1] = tested on: methicillin-resistant staphylococci
HIV = conditions: in vitro

SMILES: CC(=O)O[C@H]1C[C@@]2(C)[C@@H](C[C@@H](O)[C@H]3[C@@]4(C)CC[C@@H](O)[C@@H](C)[C@@H]4CC[C@@]32C)/C1=C(\CCC=C(C)C)C(=O)O [fusidic acid, 3α,11α,16β-Trihydroxy-29-nor-8α,9β,13α,14β-dammara-17(20),24-dien-21-oic acid 16-acetate]
- susceptibility to fusidic acid (Staphylococcus aureus): highly susceptible
- susceptibility to fusidic acid (S. epidermidis): highly susceptible
- susceptibility to fusidic acid (Clostridium spp.): highly susceptible
- susceptibility to fusidic acid (corynebacteria): highly susceptible
- susceptibility to fusidic acid (Neisseria): susceptible
- susceptibility to fusidic acid (Bacteroides spp.): susceptible
- susceptibility to fusidic acid (Gram-negative bacilli): resistant
- susceptibility to fusidic acid (fungi): resistant
- susceptibility to fusidic acid (enterobacteria): resistant
- susceptibility to fusidic acid (Psuedomonas spp.): resistant
- efficacy (streptococci): moderate efficacy
- efficacy (mycobacteria): moderate efficacy
- efficacy (Nocardia spp.): moderate efficacy
- susceptibility to fusidic acid [1]: usually susceptible
- effectiveness against HIV (HIV): in vitro effectiveness
